Measured values: article PMC10841833 (Cancer research, 2023)

Target: citron kinase (CIT/CRIK) (Homo sapiens, UniProt O14578)
Assay: in vitro kinase assay
Format: biochemical

citron kinase (CIT/CRIK), sequence (O14578 whole entry): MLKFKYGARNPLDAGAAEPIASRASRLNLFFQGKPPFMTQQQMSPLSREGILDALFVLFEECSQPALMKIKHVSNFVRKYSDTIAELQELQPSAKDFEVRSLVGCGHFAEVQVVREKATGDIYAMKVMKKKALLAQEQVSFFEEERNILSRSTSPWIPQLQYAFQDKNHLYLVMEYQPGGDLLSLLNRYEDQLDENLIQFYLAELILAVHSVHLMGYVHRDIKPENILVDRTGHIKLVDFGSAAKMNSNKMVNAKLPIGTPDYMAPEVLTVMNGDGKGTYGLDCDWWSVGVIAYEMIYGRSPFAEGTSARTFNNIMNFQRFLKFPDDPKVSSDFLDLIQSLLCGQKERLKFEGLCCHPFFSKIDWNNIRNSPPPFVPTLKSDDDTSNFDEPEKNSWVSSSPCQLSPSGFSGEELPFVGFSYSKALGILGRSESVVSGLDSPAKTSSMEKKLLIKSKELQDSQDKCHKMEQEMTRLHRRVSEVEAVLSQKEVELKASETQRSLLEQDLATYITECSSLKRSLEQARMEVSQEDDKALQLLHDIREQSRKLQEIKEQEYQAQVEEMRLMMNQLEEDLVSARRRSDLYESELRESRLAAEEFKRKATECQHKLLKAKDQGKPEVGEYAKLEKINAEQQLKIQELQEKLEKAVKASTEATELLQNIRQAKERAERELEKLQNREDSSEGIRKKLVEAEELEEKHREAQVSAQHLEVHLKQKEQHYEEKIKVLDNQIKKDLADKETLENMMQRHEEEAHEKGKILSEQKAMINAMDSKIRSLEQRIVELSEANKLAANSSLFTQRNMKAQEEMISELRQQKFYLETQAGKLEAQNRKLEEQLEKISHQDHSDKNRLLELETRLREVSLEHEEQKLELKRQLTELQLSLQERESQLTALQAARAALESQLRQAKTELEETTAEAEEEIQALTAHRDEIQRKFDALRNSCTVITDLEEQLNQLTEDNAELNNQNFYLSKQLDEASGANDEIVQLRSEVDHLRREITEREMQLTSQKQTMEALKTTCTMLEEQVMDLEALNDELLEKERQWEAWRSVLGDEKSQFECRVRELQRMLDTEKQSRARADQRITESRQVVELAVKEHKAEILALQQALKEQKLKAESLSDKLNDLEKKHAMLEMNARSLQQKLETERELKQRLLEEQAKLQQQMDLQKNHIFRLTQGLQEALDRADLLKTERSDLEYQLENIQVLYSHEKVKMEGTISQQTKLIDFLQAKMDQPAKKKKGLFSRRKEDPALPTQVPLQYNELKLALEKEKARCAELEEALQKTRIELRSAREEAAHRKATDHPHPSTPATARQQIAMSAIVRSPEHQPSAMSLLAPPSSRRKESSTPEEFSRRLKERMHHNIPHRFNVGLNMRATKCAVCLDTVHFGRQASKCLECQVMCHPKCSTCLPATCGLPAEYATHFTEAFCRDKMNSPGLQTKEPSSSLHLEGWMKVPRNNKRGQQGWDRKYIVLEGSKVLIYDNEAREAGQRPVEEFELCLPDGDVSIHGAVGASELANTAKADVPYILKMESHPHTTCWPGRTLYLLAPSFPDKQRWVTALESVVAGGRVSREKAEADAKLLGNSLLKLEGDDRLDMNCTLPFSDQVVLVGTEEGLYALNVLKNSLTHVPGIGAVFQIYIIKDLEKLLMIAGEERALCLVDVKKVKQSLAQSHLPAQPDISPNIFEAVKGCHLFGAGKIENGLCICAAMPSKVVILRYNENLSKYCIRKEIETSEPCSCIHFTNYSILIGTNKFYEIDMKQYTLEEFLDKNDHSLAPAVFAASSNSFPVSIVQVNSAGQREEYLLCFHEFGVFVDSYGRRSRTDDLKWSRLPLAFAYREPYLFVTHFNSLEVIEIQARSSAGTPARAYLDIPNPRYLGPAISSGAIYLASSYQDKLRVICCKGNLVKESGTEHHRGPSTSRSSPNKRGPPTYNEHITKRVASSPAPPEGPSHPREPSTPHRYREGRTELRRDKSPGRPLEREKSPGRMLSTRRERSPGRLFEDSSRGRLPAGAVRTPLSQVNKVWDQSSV

## CC(=O)c1cnc2ccc(-c3cc(Cl)c(O)c(Cl)c3)nc2c1N[C@H]1CC[C@H](CN(C)C)CC1 [OTS-167]
  IC50: ~0.01 µM
